Data taken from the supplement of paper PMC10307832.

Key:
Test in all cases: relative viability (nuclei count vs DMSO), 5 days (fraction); higher = more cells survive
Carfilzomib + Phenformin = compound: CC(C)C[C@H](NC(=O)[C@H](CCc1ccccc1)NC(=O)CN1CCOCC1)C(=O)N[C@@H](Cc1ccccc1)C(=O)N[C@@H](CC(C)C)C(=O)[C@@]1(C)CO1 [Carfilzomib] + N=C(N)NC(=N)NCCc1ccccc1 [Phenformin] (partner 250 µM)
Procedure, shortened: (§1)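 For relative viability, nuclei counts in treated wells were divided by those in vehicle wells. Lung cancer cell lines had been pin-tool dosed in 1536-well plates the day after seeding and cultured for 5 days, then fixed and stained in one step (final 0.05% Triton X-100, 1% formaldehyde, 1 ug/ml Hoechst) and imaged at 4×. Doses were one drug alone or a fixed anchor-drug dose plus five library-drug doses (not always all listed) in √10 steps, and values are duplicate-plate medians.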

Crizotinib + Palbociclib = compound: C[C@@H](Oc1cc(-c2cnn(C3CCNCC3)c2)cnc1N)c1c(Cl)ccc(F)c1Cl [Crizotinib] + CC(=O)c1c(C)c2cnc(Nc3ccc(N4CCNCC4)cn3)nc2n(C2CCCC2)c1=O [Palbociclib] (partner 0.5 µM)
Procedure, shortened: as §1

Crizotinib + Lapatinib = compound: C[C@@H](Oc1cc(-c2cnn(C3CCNCC3)c2)cnc1N)c1c(Cl)ccc(F)c1Cl [Crizotinib] + CS(=O)(=O)CCNCc1ccc(-c2ccc3ncnc(Nc4ccc(OCc5cccc(F)c5)c(Cl)c4)c3c2)o1 [Lapatinib] (partner 2 µM)
Procedure, shortened: as §1

Olaparib + AZD7762 = compound: O=C(c1cc(Cc2n[nH]c(=O)c3ccccc23)ccc1F)N1CCN(C(=O)C2CC2)CC1 [Olaparib] + NC(=O)Nc1cc(-c2cccc(F)c2)sc1C(=O)N[C@H]1CCCNC1 [AZD7762] (partner 0.2 µM)
Procedure, shortened: as §1

Cell Line | relative viability (Carfilzomib + Phenformin; first compound 0.001 µM) | relative viability (Carfilzomib + Phenformin; first compound 0.003162 µM) | relative viability (Carfilzomib + Phenformin; first compound 0.01 µM) | relative viability (Carfilzomib + Phenformin; first compound 0.03162 µM) | relative viability (Carfilzomib + Phenformin; first compound 0.1 µM) | relative viability (Crizotinib + Palbociclib; first compound 0.01 µM) | relative viability (Crizotinib + Palbociclib; first compound 0.03162 µM) | relative viability (Crizotinib + Palbociclib; first compound 0.1 µM) | relative viability (Crizotinib + Palbociclib; first compound 0.3162 µM) | relative viability (Crizotinib + Palbociclib; first compound 1 µM) | relative viability (Crizotinib + Lapatinib; first compound 0.01 µM) | relative viability (Crizotinib + Lapatinib; first compound 0.03162 µM) | relative viability (Crizotinib + Lapatinib; first compound 0.1 µM) | relative viability (Crizotinib + Lapatinib; first compound 0.3162 µM) | relative viability (Crizotinib + Lapatinib; first compound 1 µM) | relative viability (Olaparib + AZD7762; first compound 0.08 µM) | relative viability (Olaparib + AZD7762; first compound 0.253 µM) | relative viability (Olaparib + AZD7762; first compound 2.53 µM) | relative viability (Olaparib + AZD7762; first compound 8 µM)
BEN | 0.319 | 0.318 | 0.346 | 0.251 | 0.182 | 0.528 | 0.504 | 0.464 | 0.47 | 0.489 | 0.697 | 0.69 | 0.642 | 0.719 | 0.749 | 0.638 | 0.571 | 0.727 | 0.664
NCI-H1650 | 0.421 | 0.254 | 0.232 | 0.174 | 0.156 | 0.26 | 0.359 | 0.379 | 0.391 | 0.319 | 0.699 | 0.819 | 0.828 | 0.363 | 0.799 | – | – | – | –
A-427 | 0.25 | 0.464 | 0.381 | 0.116 | 0.133 | 0.486 | 0.53 | 0.496 | – | 0.558 | 0.852 | 1.07 | 1.09 | – | 1.12 | 0.786 | 0.671 | 0.579 | 0.427
CAL-12T | 0.61 | 0.668 | 0.591 | 0.101 | 0.114 | 0.369 | 0.577 | 0.341 | 0.295 | 0.369 | 0.664 | 0.771 | 0.658 | – | 0.608 | 0.757 | 0.555 | 0.726 | 0.544
EPLC-272H | 0.269 | 0.314 | 0.307 | 0.124 | 0.038 | 0.334 | 0.298 | 0.31 | – | 0.309 | 0.861 | 0.996 | 0.945 | 0.9 | 1.11 | 0.289 | 0.163 | 0.176 | 0.114
NCI-H1563 | 0.673 | 0.681 | 0.61 | 0.661 | 0.48 | – | – | – | – | – | 0.88 | 0.962 | 0.936 | 0.753 | 0.789 | – | – | – | –
UMC-11 | 0.318 | 0.33 | 0.295 | 0.293 | 0.162 | 0.329 | 0.336 | 0.307 | – | 0.398 | – | 0.975 | 1.02 | – | 0.668 | – | – | – | –
NCI-H2023 | 0.406 | 0.444 | 0.416 | 0.145 | 0.0723 | 0.356 | 0.308 | 0.353 | 0.229 | 0.236 | 0.864 | 0.884 | 0.71 | 0.372 | 0.465 | – | – | – | –
Calu-6 | – | – | – | – | – | – | – | – | – | – | 1.07 | 1.1 | 1.07 | 1.05 | 0.991 | – | – | – | –
NCI-H2342 | 0.652 | 0.521 | 0.715 | 0.671 | 0.352 | 0.527 | 0.549 | 0.531 | 0.485 | 0.576 | – | – | – | – | – | 0.544 | 0.4 | 0.439 | 0.474
NCI-H596 | 0.807 | 0.812 | 0.781 | 0.433 | 0.25 | – | – | – | – | – | 1.02 | 1.12 | 1.02 | 1.02 | 1.24 | 1.19 | 0.981 | 1.04 | 0.703
